Results as given in patent US20250228239A1, “MOLECULES HAVING PESTICIDAL UTILITY, AND INTERMEDIATES, COMPOSITIONS, AND PROCESSES, RELATED THERETO” (priority 2024, published 2025).
Where two headings read alike, the source gives them in different places.

Legend:
Format in all cases: in vivo
[1] = system: Beet Armyworm (Spodoptera exigua, LAPHEG); experiment: Bioassays on Beet Armyworm (BAW), 128-well diet tray assay; settings: Spodoptera exigua
Method in brief: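 Test molecule was dissolved in 90:10 acetone-water and applied at 50 μg/cm^2 onto artificial diet in eight wells, then dried. Second instar larvae, one to five per well, were added, and trays were kept vented at 25° C. with a 14:10 photoperiod for five to seven days before mortality was recorded.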

[2] = system: Cabbage Looper (Trichoplusia ni, TRIPNI); experiment: Bioassays on Cabbage Looper (CL), 128-well diet tray assay; settings: Trichoplusia ni
Method in brief: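 Activity is mean percent mortality over eight wells of second-instar larvae exposed to diet treated at 50 μg/cm^2 for 5–7 days at 25° C.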

[3] = system: Yellow Fever Mosquito (Aedes aegypti, AEDSAE); settings: for YFM rating: Table ABC / ABC-DP rating
Method in brief: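 Compounds from DMSO master plates (4000 ppm stock) diluted in 90:10 water/acetone, then dispensed into six replicate plates and infested with ~1-day-old Aedes aegypti larvae in liver-powder water. Held covered at room temperature for 3 days; each well scored for larval mortality and graded on a rating scale.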

[4] = Beet Armyworm, Table ABC / ABC-DP rating, read-out: BAW rating
[5] = Cabbage Looper, Table ABC / ABC-DP rating, read-out: CL rating
[6] = Beet Armyworm, rating class, read-out: BAW
[7] = Cabbage Looper, rating class, read-out: CL
[8] = Yellow Fever Mosquito, rating class
[9] = Table ABC: Biological Results, species BAW, read-out: BAW
[10] = Table ABC: Biological Results, species CL, read-out: CL
[11] = Table ABC: Biological Results, species YFM

Row | Compound | pest or weed control at 50 µg/cm2 [1, 4] [%] | pest or weed control at 50 µg/cm2 [2, 5] [%] | YFM rating ([3]; Yellow Fever Mosquito) | pest or weed control at 50 µg/cm2 [1, 9] [%] | pest or weed control at 50 µg/cm2 [2, 10] [%] | YFM [3, 11] | other results
1 | C#CCN(C(=O)CC#N)c1c(F)ccc(NC(=O)c2cc(NC(=O)[C@H]3[C@H](c4ccc(F)c(C(F)(F)F)c4)C3(Cl)Cl)ccc2Cl)c1F [F1810, 2-Chloro-N-(3-(2-cyano-N-(prop-2-yn-1-yl)acetamido)-2,4-difluorophenyl)-5-((1R,3R)-2,2-dichloro-3-(4-fluoro-3-(trifluoromethyl)phenyl)cyclopropane-1-carboxamido)benzamide] | 50 to 100 | 50 to 100 | A (80–100) | – | – | – | –
2 | O=C(Nc1ccc(F)c(NCCF)c1F)c1cc(NC(=O)[C@H]2[C@H](c3ccc(F)c(C(F)(F)F)c3)C2(Cl)Cl)ccc1Cl [F1826, 2-Chloro-5-((1R,3R)-2,2-dichloro-3-(4-fluoro-3-(trifluoromethyl)phenyl)cyclopropane-1-carboxamido)-N-(2,4-difluoro-3-((2-fluoroethyl)amino)phenyl)benzamide] | 50 to 100 | 50 to 100 | A (80–100) | – | – | – | –
3 | O=C(Nc1ccc(F)c(NC(=O)C2CCCO2)c1F)c1cc(NC(=O)[C@H]2[C@H](c3ccc(F)c(C(F)(F)F)c3)C2(Cl)Cl)ccc1Cl (stereo partly drawn) [F1521, N-(3-(2-Chloro-5-((1R,3R)-2,2-dichloro-3-(4-fluoro-3-(trifluoromethyl)phenyl)cyclopropane-1-carboxamido)benzamido)-2,6-difluorophenyl)tetrahydrofuran-2-carboxamide] | – | – | – | – | – | – | pest or weed control at 50 µg/cm2 [1, 6]: 50 to 100%; pest or weed control at 50 µg/cm2 [2, 7]: 50 to 100%; YFM [3, 8]: A (80–100)
4 | O=C(NNc1ccc([N+](=O)[O-])cc1)c1cc(NC(=O)[C@H]2[C@H](c3cc(Cl)cc(Cl)c3)C2(Cl)Cl)ccc1Cl (relative stereo) [F2555, trans-2,2-Dichloro-N-(4-chloro-3-(2-(4-nitrophenyl)hydrazine-1-carbonyl)phenyl)-3-(3,5-dichlorophenyl)cyclopropane-1-carboxamide] | 50 to 100 | 50 to 100 | A (80–100) | – | – | – | –
5 | CCOC(=O)C(F)(F)CNC(=O)c1cc(NC(=O)[C@H]2[C@H](c3cc(Cl)cc(Cl)c3)C2(Cl)Cl)cc(F)c1Cl (relative stereo) [F2089, trans-Ethyl 3-(2-chloro-5-(2,2-dichloro-3-(3,5-dichlorophenyl)cyclopropane-1-carboxamido)-3-fluorobenzamido)-2,2-difluoropropanoate] | 50 to 100 | 50 to 100 | A (80–100) | – | – | – | –
6 | Cc1cc(NC(=O)C(F)(F)F)ccc1NC(=O)c1cc(NC(=O)[C@H]2[C@H](c3ccc(Cl)c(Cl)c3)C2(Cl)Cl)ccc1Cl (relative stereo) [F1061, trans-2-Chloro-5-(2,2-dichloro-3-(3,4-dichlorophenyl)cyclopropane-1-carboxamido)-N-(2-methyl-4-(2,2,2-trifluoroacetamido)phenyl)benzamide] | – | – | – | 50 to 100 | 50 to 100 | A (80–100) | –
7 | Cc1c(NC(=O)c2cc(NC(=O)[C@H]3[C@H](c4ccc(F)c(C(F)(F)F)c4)C3(Cl)Cl)ccc2Cl)ccc(NC(=O)C(F)(F)F)c1C [F1392, 2-Chloro-5-((1R,3R)-2,2-dichloro-3-(4-fluoro-3-(trifluoromethyl)phenyl)cyclopropane-1-carboxamido)-N-(2,3-dimethyl-4-(2,2,2-trifluoroacetamido)phenyl)benzamide] | – | – | – | – | – | – | pest or weed control at 50 µg/cm2 [1, 6]: 50 to 100%; pest or weed control at 50 µg/cm2 [2, 7]: 50 to 100%; YFM [3, 8]: A (80–100)
8 | O=C(Nc1ccc(F)cc1F)c1cc(NC(=O)[C@H]2[C@H](c3c(F)c(F)c(F)c(F)c3F)C2(Cl)Cl)ccc1Cl (relative stereo) [F1009, trans-2-Chloro-5-(2,2-dichloro-3-(perfluorophenyl)cyclopropane-1-carboxamido)-N-(2,4-difluorophenyl)benzamide] | – | – | – | 50 to 100 | 50 to 100 | A (80–100) | –
9 | O=C(Nc1ccccc1)c1c(Cl)ccc(NC(=O)[C@H]2[C@H](c3ccc(F)c(Cl)c3)C2(Cl)Cl)c1Cl (relative stereo) [F1104, trans-2,6-Dichloro-3-(2,2-dichloro-3-(3-chloro-4-fluorophenyl)cyclopropane-1-carboxamido)-N-phenylbenzamide] | – | – | – | 50 to 100 | 50 to 100 | A (80–100) | –
10 | Nc1c(F)ccc(NC(=O)c2cc(NC(=O)[C@H]3[C@H](c4cccc(I)c4)C3(Cl)Cl)ccc2Cl)c1F (relative stereo) [F1141, trans-N-(3-Amino-2,4-difluorophenyl)-2-chloro-5-(2,2-dichloro-3-(3-iodophenyl)cyclopropane-1-carboxamido)benzamide] | – | – | – | 50 to 100 | 50 to 100 | A (80–100) | –
11 | O=C(Nc1ccc(F)c(NC(=O)C(F)(F)F)c1)c1cc(NC(=O)[C@H]2[C@H](c3ccc(F)c(C(F)(F)F)c3)C2(Cl)Cl)ccc1Cl [F1815, 2-Chloro-5-((1R,3R)-2,2-dichloro-3-(4-fluoro-3-(trifluoromethyl)phenyl)cyclopropane-1-carboxamido)-N-(4-fluoro-3-(2,2,2-trifluoroacetamido)phenyl)benzamide] | 50 to 100 | 50 to 100 | A (80–100) | – | – | – | –
12 | CC(=O)Nc1cc(NC(=O)c2cc(NC(=O)[C@H]3[C@H](c4ccc(Cl)c(Cl)c4)C3(Cl)Cl)ccc2F)c(F)cc1F [F1511, N-(5-Acetamido-2,4-difluorophenyl)-5-((1R,3R)-2,2-dichloro-3-(3,4-dichlorophenyl)cyclopropane-1-carboxamido)-2-fluorobenzamide] | – | – | – | – | – | – | pest or weed control at 50 µg/cm2 [1, 6]: 50 to 100%; pest or weed control at 50 µg/cm2 [2, 7]: 50 to 100%; YFM [3, 8]: A (80–100)
13 | CC(C)(C)OC(=O)N(C(=O)OC(C)(C)C)c1cc(NC(=O)c2cc(NC(=O)[C@H]3[C@H](c4ccc(Cl)c(Cl)c4)C3(Cl)Cl)ccc2Cl)c(F)cc1F [DP12, tert-Butyl-N-((tert-butoxy)carbonyl)-N-(5-(2-chloro-5-((1R,3R)-2,2-dichloro-3-(3,4-dichlorophenyl)cyclopropane-1-carboxamido)benzamido)-2,4-difluorophenyl)carbamate] | 50 to 100 | 50 to 100 | – | – | – | – | mortality at 50 µg/cm2 ([1]; 168 h, second instar larvae, 50 μg/cm^2 of test molecule on artificial diet, 25° C., five to seven days, average of eight wells, read-out: BAW % Control (or Mortality) rating): 50 to 100%; mortality at 50 µg/cm2 ([2]; 168 h, second instar larvae, 50 μg/cm^2 of test molecule on artificial diet, 25° C., five to seven days, average of eight wells, read-out: CL % Control (or Mortality) rating): 50 to 100%; YFM % Control (or Mortality) rating ([3]; about 1 day-old larvae, 4000 ppm master solution diluted with 90:10 water/acetone, 15 μL per well plus 220 μL larval mixture, 3 days, mortality): D (No activity noticed in this bioassay)
14 | O=C(NCCC(F)(F)F)c1c(F)ccc(NC(=O)[C@H]2[C@H](c3ccc(F)c(Cl)c3)C2(Cl)Cl)c1F (relative stereo) [F2023, trans-3-(2,2-Dichloro-3-(3-chloro-4-fluorophenyl)cyclopropane-1-carboxamido)-2,6-difluoro-N-(3,3,3-trifluoropropyl)benzamide] | 50 to 100 | 50 to 100 | A (80–100) | – | – | – | –
15 | O=C(Nc1ccc(F)c(NC(=O)C(F)(F)F)c1F)c1cc(NC(=O)[C@H]2[C@H](c3ccc(Cl)c(Cl)c3)C2(Cl)Cl)ccc1Cl [F1064, 2-Chloro-5-((1R,3R)-2,2-dichloro-3-(3,4-dichlorophenyl)cyclopropane-1-carboxamido)-N-(2,4-difluoro-3-(2,2,2-trifluoroacetamido)phenyl)benzamide] | – | – | – | 50 to 100 | 50 to 100 | A (80–100) | –
16 | N#Cc1cc(NC(=O)c2cc(NC(=O)[C@H]3[C@H](c4ccc(F)c(Cl)c4)C3(Cl)Cl)ccc2Cl)ccc1N (relative stereo) [F1387, trans-N-(4-Amino-3-cyanophenyl)-2-chloro-5-(2,2-dichloro-3-(3-chloro-4-fluorophenyl)cyclopropane-1-carboxamido)benzamide] | – | – | – | 50 to 100 | 50 to 100 | A (80–100) | –
17 | CN(C(=O)c1cc(NC(=O)[C@H]2[C@H](c3ccc(Cl)c(Cl)c3)C2(Cl)Cl)ccc1Cl)N(C)c1ccccc1 [F2544, (1R,3R)-2,2-Dichloro-N-(4-chloro-3-(1,2-dimethyl-2-phenylhydrazine-1-carbonyl)phenyl)-3-(3,4-dichlorophenyl)cyclopropane-1-carboxamide] | 50 to 100 | 50 to 100 | A (80–100) | – | – | – | –
18 | O=C(Nc1ccc(F)c(NC(=O)C(F)(F)F)c1F)c1cc(NC(=O)[C@H]2[C@H](c3ccc(Cl)c(Br)c3)C2(Cl)Cl)ccc1Cl (relative stereo) [F1358, trans-5-(3-(3-Bromo-4-chlorophenyl)-2,2-dichlorocyclopropane-1-carboxamido)-2-chloro-N-(2,4-difluoro-3-(2,2,2-trifluoroacetamido)phenyl)benzamide] | – | – | – | 50 to 100 | 50 to 100 | A (80–100) | –
